Tests used:
[1] = target: Prostaglandin G/H synthase 1 (Ovis aries) (UniProt P05979); settings: at 500 µM
[2] = target: Prostaglandin G/H synthase 1 (Ovis aries) (UniProt P05979); test: Inhibition of PGH synthase in sheep seminal vesicle microsomes
[3] = target: Prostaglandin G/H synthase 1 (Ovis aries) (UniProt P05979); test: Inhibition of microsomal PGH synthase isolated from sheep seminal vesicles (SSV) estimated as rate of oxygen consumption in presence of 100 uM of the compound
[4] = target: Prostaglandin G/H synthase 1 (Ovis aries) (UniProt P05979); test: as above; parameters: scale not given: the % may be the effect or the level left
[5] = target: Prostaglandin G/H synthase 1 (Ovis aries) (UniProt P05979); test: Inhibition of microsomal PGH synthase isolated from sheep seminal vesicles (SSV) estimated as rate of oxygen consumption in presence of 500 uM of the compound; Compound was found to be insoluble
[6] = target: Prostaglandin G/H synthase 1 (Ovis aries) (UniProt P05979); test: Inhibition of microsomal PGH synthase isolated from sheep seminal vesicles (SSV) estimated as rate of oxygen consumption in presence of 500 uM of the compound; parameters: scale not given: the % may be the effect or the level left

Sequence of Prostaglandin G/H synthase 1 (Ovis aries) (P05979 whole entry, looked up): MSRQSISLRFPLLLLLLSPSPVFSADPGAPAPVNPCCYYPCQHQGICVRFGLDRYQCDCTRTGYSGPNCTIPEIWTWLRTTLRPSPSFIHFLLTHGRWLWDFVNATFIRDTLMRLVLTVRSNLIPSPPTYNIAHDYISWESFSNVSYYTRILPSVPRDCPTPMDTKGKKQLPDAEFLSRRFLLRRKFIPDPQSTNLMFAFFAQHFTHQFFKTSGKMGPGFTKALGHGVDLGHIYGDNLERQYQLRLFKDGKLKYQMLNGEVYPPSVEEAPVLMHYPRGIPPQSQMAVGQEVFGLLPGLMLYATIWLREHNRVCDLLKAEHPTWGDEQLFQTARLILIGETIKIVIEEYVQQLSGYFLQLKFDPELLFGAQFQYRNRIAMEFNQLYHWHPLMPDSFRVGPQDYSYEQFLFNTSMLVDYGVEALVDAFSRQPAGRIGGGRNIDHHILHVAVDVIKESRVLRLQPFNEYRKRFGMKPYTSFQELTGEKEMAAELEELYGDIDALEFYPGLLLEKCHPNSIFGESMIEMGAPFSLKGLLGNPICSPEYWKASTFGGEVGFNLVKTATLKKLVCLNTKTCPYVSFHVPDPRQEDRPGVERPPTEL

Row | Control [1] [%] | IC50 [2] [µM] | Oxygen consumption rate, % of control [3] [%] | Control [4] [%] | Control [5] | Control [6] | SMILES
1 | 25 | 190 | 67 |  |  |  | O=C(CC(=O)Nc1ccc(O)cc1)Nc1ccc(O)cc1
2 | 55 |  |  | 65 |  |  | O=C(CC(=O)Nc1ccccc1)Nc1ccccc1
3 | 48 | 420 | 64 |  |  |  | O=C(CC(=O)Nc1ccc(Cl)cc1)Nc1ccc(Cl)cc1
4 |  |  |  |  |  | 88% | O=C(CC(=O)Nc1ccc([N+](=O)[O-])cc1)Nc1ccc([N+](=O)[O-])cc1
5 | 26 | 230 |  | 67 |  |  | O=C(CCCCC(=O)Nc1ccc(O)cc1)Nc1ccc(O)cc1
6 | 97 |  |  |  |  |  | CCCCC(C(=O)Nc1ccc(C)cc1)C(=O)Nc1ccc(C)cc1
7 |  |  |  |  |  | 66% | Cc1ccc(NC(=O)CC(=O)Nc2ccc(C)cc2)cc1
8 |  | 240 | 79 |  |  | 27% | O=C(CCC(=O)Nc1ccc(O)cc1)Nc1ccc(O)cc1
9 |  |  | 78 |  | Insoluble |  | COc1ccc(NC(=O)CC(=O)Nc2ccc(OC)cc2)cc1

Second part, the compound before the results:

Row | SMILES | Control [1] [%] | IC50 [2] [µM] | Oxygen consumption rate, % of control [3] [%] | Control [4] [%] | Control [5] | Control [6]
10 | CCCCC(C(=O)Nc1ccc(Cl)cc1)C(=O)Nc1ccc(Cl)cc1 |  |  |  | 96 | Insoluble | 
11 | CCCCC(C(=O)Nc1ccccc1)C(=O)Nc1ccccc1 |  |  | 105 |  | Insoluble | 
12 | CCCCC(C(=O)Nc1ccc(OC)cc1)C(=O)Nc1ccc(OC)cc1 |  |  | 102 |  | Insoluble | 
13 | CCCCC(C(=O)Nc1ccc(O)cc1)C(=O)Nc1ccc(O)cc1 | 36 | 290 |  | 76 |  | 
14 | CCCCC(C(=O)Nc1ccc(O)cc1C)C(=O)Nc1ccc(O)cc1C |  | 150 |  | 57 |  | 31%
15 | CCCCC(C(=O)Nc1ccc([N+](=O)[O-])cc1)C(=O)Nc1ccc([N+](=O)[O-])cc1 |  |  |  | 126 |  | Insoluble
16 | O=C(CC(=O)Nc1cccc(O)c1)Nc1cccc(O)c1 | 86 |  |  |  |  | 
